Data taken from PubChem BioAssay AID1963975 (Molecular Pharmacology Branch, DTP, NCI, 2024).

Tested on: 624824-186-R-J2-PDC multicell spheroids, viability
Experiment: Anticancer human tumor 624824-186-R-J2-PDC patient-derived colon adenocarcinoma cell line growth inhibition [PI3K]
Conditions: for IC50: curve of first compound; for viability, T/C: stronger effect = lower value
How it was run: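 We assembled tumor spheroids that included a stromal compartment of HUVEC and MSCs, then exposed them to targeted agents alone and together with PI3K pathway inhibitors. Concentration series descended by half-log from clinically achievable Cmax levels. Viability served as the endpoint.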

[1] = second compound 0.0316 µM, first compound 0.0316 µM
[2] = second compound 0.0316 µM, first compound 0.1 µM
[3] = second compound 0.0316 µM, first compound 0.316 µM
[4] = second compound 0.0316 µM, first compound 1 µM
[5] = second compound 0.1 µM, first compound 0.0316 µM
[6] = second compound 0.1 µM, first compound 0.1 µM
[7] = second compound 0.1 µM, first compound 0.316 µM
[8] = second compound 0.1 µM, first compound 1 µM
[9] = second compound 0.316 µM, first compound 0.0316 µM
[10] = second compound 0.316 µM, first compound 0.1 µM
[11] = second compound 0.316 µM, first compound 0.316 µM
[12] = second compound 0.316 µM, first compound 1 µM
[13] = second compound 1 µM, first compound 0.0316 µM
[14] = second compound 1 µM, first compound 0.1 µM
[15] = second compound 1 µM, first compound 0.316 µM
[16] = second compound 1 µM, first compound 1 µM
[17] = second compound 3.16 µM, first compound 0.0316 µM
[18] = second compound 3.16 µM, first compound 0.1 µM
[19] = second compound 3.16 µM, first compound 0.316 µM
[20] = second compound 3.16 µM, first compound 1 µM
[21] = second compound 10 µM, first compound 0.0316 µM
[22] = second compound 10 µM, first compound 0.1 µM
[23] = second compound 10 µM, first compound 0.316 µM
[24] = second compound 10 µM, first compound 1 µM
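Also: spheroids exposed to agents for 7 days before viability read.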
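For viability, T/C in this document: 100% = DMSO vehicle treated spheroids.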

`CC(C)NCC(C(=O)N1CCN(c2ncnc3c2C(C)CC3O)CC1)c1ccc(Cl)cc1` (centres undefined) + Cc1nc(NC(=O)N2CCCC2C(N)=O)sc1-c1ccnc(C(C)(C)C(F)(F)F)c1 gave an IC50 (second compound 0.0316 µM) greater than 10 µM, an IC50 (second compound 0.1 µM) greater than 10 µM and an IC50 (second compound 0.316 µM) greater than 10 µM. It also gave an IC50 (second compound 1 µM) greater than 10 µM, an IC50 (second compound 3.16 µM) greater than 10 µM and an IC50 (second compound 10 µM) greater than 10 µM. For the same molecule, the viability, T/C [1] was 88.1%, the viability, T/C [2] was 106% and the viability, T/C [3] was 72.2%. The viability, T/C [4] was 85%, the viability, T/C (second compound 0.0316 µM, first compound 3.16 µM) was 93.3% and the viability, T/C (second compound 0.0316 µM, first compound 10 µM) was 68.2%. For the same molecule, the viability, T/C [5] was 79.3%, the viability, T/C [6] was 72.6% and the viability, T/C [7] was 85%. For the same molecule, the viability, T/C [8] was 68.1%, the viability, T/C (second compound 0.1 µM, first compound 3.16 µM) was 76.5% and the viability, T/C (second compound 0.1 µM, first compound 10 µM) was 74.4%. It also gave a viability, T/C [9] of 78.2%, a viability, T/C [10] of 68.2% and a viability, T/C [11] of 77.5%. For the same molecule, the viability, T/C [12] was 75.3%, the viability, T/C (second compound 0.316 µM, first compound 3.16 µM) was 79.6% and the viability, T/C (second compound 0.316 µM, first compound 10 µM) was 64.9%. The viability, T/C [13] was 64.5%, the viability, T/C [14] was 85.9% and the viability, T/C [15] was 63.4%. For the same molecule, the viability, T/C [16] was 86.4%, the viability, T/C (second compound 1 µM, first compound 3.16 µM) was 76.5% and the viability, T/C (second compound 1 µM, first compound 10 µM) was 75.4%. For the same molecule, the viability, T/C [17] was 78.2%, the viability, T/C [18] was 79.8% and the viability, T/C [19] was 81.3%. For the same molecule, the viability, T/C [20] was 82.2%, the viability, T/C (second compound 3.16 µM, first compound 3.16 µM) was 68% and the viability, T/C (second compound 3.16 µM, first compound 10 µM) was 55.9%. The viability, T/C [21] was 73.5%, the viability, T/C [22] was 66.6% and the viability, T/C [23] was 58.1%. The viability, T/C [24] was 62.5%, the viability, T/C (second compound 10 µM, first compound 3.16 µM) was 63.7% and the viability, T/C (second compound 10 µM, first compound 10 µM) was 55.8%.

In the case of `CCN1CCN(Cc2ccc(Nc3ncc(F)c(-c4cc(F)c5nc(C)n(C(C)C)c5c4)n3)nc2)CC1` + Cc1nc(NC(=O)N2CCCC2C(N)=O)sc1-c1ccnc(C(C)(C)C(F)(F)F)c1, the IC50 (second compound 0.0316 µM) is reported as greater than 1 µM, the IC50 (second compound 0.1 µM) is reported as greater than 1 µM and the IC50 (second compound 0.316 µM) is reported as greater than 1 µM. It also gave an IC50 (second compound 1 µM) greater than 1 µM, an IC50 (second compound 3.16 µM) greater than 1 µM and an IC50 (second compound 10 µM) greater than 1 µM. The viability, T/C (second compound 0.0316 µM, first compound 0.00316 µM) was 95.9%, the viability, T/C (second compound 0.0316 µM, first compound 0.01 µM) was 92.4% and the viability, T/C [1] was 87.3%. It also gave a viability, T/C [2] of 72.8%, a viability, T/C [3] of 75.5% and a viability, T/C [4] of 102%. The viability, T/C (second compound 0.1 µM, first compound 0.00316 µM) was 85.8%, the viability, T/C (second compound 0.1 µM, first compound 0.01 µM) was 81.7% and the viability, T/C [5] was 67.9%. It also gave a viability, T/C [6] of 82.8%, a viability, T/C [7] of 87% and a viability, T/C [8] of 92.8%. The viability, T/C (second compound 0.316 µM, first compound 0.00316 µM) was 91.4%, the viability, T/C (second compound 0.316 µM, first compound 0.01 µM) was 79.2% and the viability, T/C [9] was 63.6%. It also gave a viability, T/C [10] of 76.6%, a viability, T/C [11] of 92% and a viability, T/C [12] of 88.7%. The viability, T/C (second compound 1 µM, first compound 0.00316 µM) was 63.2%, the viability, T/C (second compound 1 µM, first compound 0.01 µM) was 77.3% and the viability, T/C [13] was 76.5%. For the same molecule, the viability, T/C [14] was 80.2%, the viability, T/C [15] was 86% and the viability, T/C [16] was 95.2%. It also gave a viability, T/C (second compound 3.16 µM, first compound 0.00316 µM) of 72.2%, a viability, T/C (second compound 3.16 µM, first compound 0.01 µM) of 93% and a viability, T/C [17] of 78.7%. The viability, T/C [18] was 68.6%, the viability, T/C [19] was 79.4% and the viability, T/C [20] was 82.4%. The viability, T/C (second compound 10 µM, first compound 0.00316 µM) was 63.8%, the viability, T/C (second compound 10 µM, first compound 0.01 µM) was 66.1% and the viability, T/C [21] was 70.7%. The viability, T/C [22] was 53%, the viability, T/C [23] was 65.2% and the viability, T/C [24] was 74.9%.
